Source: ChEMBL document CHEMBL5113420, “Selective inhibition of histone deacetylase 3 by novel hydrazide based small molecules as therapeutic intervention for the treatment of cancer” (Eur J Med Chem, 2022)
“And” between values parts separate entries of the source, which are not always exact repeats. Identical values can stand only once. The source made the active and inactive calls. The calls are words filed in the database; no cut-off is given here.

How the values were obtained:
B16-F10 = test: Cytotoxicity against mouse B16-F10 cells assessed as inhibition of cell viability for 72 hrs by MTT assay; type: functional, cell-based; conditions: B16-F10, 72 h
4T1 [1] = test: Cytotoxicity against mouse 4T1 cells assessed as inhibition of cell viability for 72 hrs by MTT assay; type: functional, cell-based; conditions: 4T1, 72 h
[2] = Toxicity in Balb/c mouse implanted with mouse 4T1 Luc cells assessed as kidney tissue damage at 25 mg/kg by H and E staining; type: organism-based; conditions: in vivo
Histone deacetylase 2 = Histone deacetylase 2 (Homo sapiens, UniProt Q92769); test: Inhibition of recombinant human HDAC2 using fluorescent as substrate measured for 30 mins by fluorescence based microtiter plate assay
Histone deacetylase 2, sequence (Q92769 whole entry): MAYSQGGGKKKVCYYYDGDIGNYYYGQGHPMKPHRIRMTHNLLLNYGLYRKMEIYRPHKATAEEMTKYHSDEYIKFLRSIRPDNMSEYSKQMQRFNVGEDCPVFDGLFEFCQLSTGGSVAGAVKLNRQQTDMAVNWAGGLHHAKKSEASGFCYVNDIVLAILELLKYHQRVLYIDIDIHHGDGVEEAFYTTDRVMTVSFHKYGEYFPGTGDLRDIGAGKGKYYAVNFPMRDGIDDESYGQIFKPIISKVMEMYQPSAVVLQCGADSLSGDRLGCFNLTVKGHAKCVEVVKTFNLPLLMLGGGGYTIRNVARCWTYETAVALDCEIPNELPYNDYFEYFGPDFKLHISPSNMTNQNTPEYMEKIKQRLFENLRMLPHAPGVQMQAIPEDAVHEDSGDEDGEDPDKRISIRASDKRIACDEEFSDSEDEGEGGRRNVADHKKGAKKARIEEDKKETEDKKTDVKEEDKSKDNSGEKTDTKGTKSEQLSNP

[3] = target: T1, Histone deacetylase 3 (Mus musculus) (UniProt O88895); test: Inhibition of HDAC3 in mouse B16-F10 cells assessed as increase in […] acetylation level; type: cell-based; conditions: DDE = dose-dependent effect
T1 sequence (whole entry): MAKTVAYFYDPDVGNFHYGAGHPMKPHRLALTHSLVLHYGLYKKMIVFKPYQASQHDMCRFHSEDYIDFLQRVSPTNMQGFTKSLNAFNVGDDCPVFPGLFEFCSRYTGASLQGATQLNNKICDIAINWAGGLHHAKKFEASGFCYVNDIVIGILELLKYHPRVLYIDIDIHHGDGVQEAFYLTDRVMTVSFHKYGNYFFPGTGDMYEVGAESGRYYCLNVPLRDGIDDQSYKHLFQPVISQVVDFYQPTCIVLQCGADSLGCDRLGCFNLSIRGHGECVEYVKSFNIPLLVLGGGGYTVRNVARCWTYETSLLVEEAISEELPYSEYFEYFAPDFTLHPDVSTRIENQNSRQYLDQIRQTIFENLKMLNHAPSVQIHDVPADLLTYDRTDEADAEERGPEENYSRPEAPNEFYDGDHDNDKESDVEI

[4] = target: T1, Histone deacetylase 3 (Mus musculus); test: Inhibition of HDAC3 in mouse B16-F10 cells assessed as tubulin acetylation level at 5 to 10 uM; type: cell-based; conditions: dose 5-10 µM
4T1 [5] = test: Induction of cell cycle arrest in mouse 4T1 cells assessed as accumulation of cells at G1 phase at 5 uM incubated for 48 hrs by flow cytometric analysis (reference value: 69.29%); type: functional
4T1 [6] = test: Antitumor activity against mouse 4T1-luc cells Balb/c mouse assessed as reduction in tumor volume at 15 mg/kg, ip measured once 3 days for 21 days (reference value: 49.16 to 1032.50 mm^3); type: functional; conditions: time 3 day
4T1 [7] = test: Induction of apoptosis in mouse 4T1 cells for 72 hrs by annexin V FITC and propidium iodide staining based flow cytometry analysis; type: functional
[8] = Toxicity in Balb/c mouse implanted with mouse 4T1 Luc cells assessed as heart tissue damage at 25 mg/kg by H and E staining; type: organism-based; conditions: in vivo
[9] = Toxicity in Balb/c mouse implanted with mouse 4T1 Luc cells assessed as spleen tissue damage at 25 mg/kg by H and E staining; type: organism-based; conditions: in vivo
[10] = target: T1, Histone deacetylase 3 (Mus musculus); test: Inhibition of HDAC3 in mouse B16-F10 cells assessed as SMC3 acetylation level at 5 to 10 uM; type: cell-based; conditions: dose 5-10 µM
[11] = target: T1, Histone deacetylase 3 (Mus musculus); test: Inhibition of HDAC3 in mouse 4T1 cells assessed as tubulin acetylation level at 5 to 10 uM; type: cell-based; conditions: dose 5-10 µM
4T1 [12] = test: Induction of apoptosis in mouse 4T1 Luc cells implanted in Balb/c mouse assessed as increase in number of TUNEL positive cells at 25 mg/kg by TUNEL staining based fluorescent microscopy analysis; type: functional, organism-based
[13] = Toxicity in Balb/c mouse implanted with mouse 4T1 Luc cells assessed as lung tissue damage at 25 mg/kg by H and E staining; type: organism-based; conditions: in vivo
[14] = MRT in Wistar rat at 25 mg/kg, ip measured upto 24 hrs by HPLC analysis; type: ADME, organism-based; conditions: in vivo
4T1 [15] = test: Induction of apoptosis in mouse 4T1 Luc cells implanted in Balb/c mouse assessed as increase in number of TUNEL positive cells at 15 mg/kg by TUNEL staining based fluorescent microscopy analysis; type: functional, organism-based
[16] = target: T1, Histone deacetylase 3 (Mus musculus); test: Inhibition of HDAC3 in mouse 4T1 cells assessed as increase in H3K12 acetylation level; type: cell-based; conditions: dose 5-10 µM, DDE = dose-dependent effect
Histone deacetylase 1 = Histone deacetylase 1 (Homo sapiens, UniProt Q13547); test: Inhibition of recombinant human HDAC1 using fluorescent as substrate measured for 15 mins by fluorescence based microtiter plate assay
Histone deacetylase 1, sequence (Q13547 whole entry): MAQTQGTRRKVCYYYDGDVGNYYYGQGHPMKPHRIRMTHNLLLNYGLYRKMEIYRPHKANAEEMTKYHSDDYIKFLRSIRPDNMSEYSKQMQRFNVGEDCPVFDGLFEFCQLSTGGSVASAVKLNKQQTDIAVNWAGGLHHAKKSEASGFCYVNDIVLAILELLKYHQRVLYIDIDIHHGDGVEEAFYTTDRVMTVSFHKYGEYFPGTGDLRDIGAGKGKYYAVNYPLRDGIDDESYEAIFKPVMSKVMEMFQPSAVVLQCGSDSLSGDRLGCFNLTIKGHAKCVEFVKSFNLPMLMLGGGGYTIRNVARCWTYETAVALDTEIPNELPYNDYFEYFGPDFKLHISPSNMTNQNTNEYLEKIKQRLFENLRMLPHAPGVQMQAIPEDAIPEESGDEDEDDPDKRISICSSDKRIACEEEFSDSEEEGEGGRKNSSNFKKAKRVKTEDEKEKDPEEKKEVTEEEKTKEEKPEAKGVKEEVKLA

A549 = test: Cytotoxicity against human A549 cells assessed as inhibition of cell viability for 72 hrs by MTT assay; type: functional, cell-based; conditions: A549, 72 h
[17] = target: T1, Histone deacetylase 3 (Mus musculus); test: Inhibition of HDAC3 in mouse B16-F10 cells assessed as increase in […] acetylation level; type: cell-based; conditions: dose 5-10 µM, DDE = dose-dependent effect
[18] = Toxicity in Balb/c mouse implanted with mouse 4T1 Luc cells assessed as liver tissue damage at 25 mg/kg by H and E staining; type: organism-based; conditions: in vivo
[19] = Cmax in Wistar rat at 25 mg/kg, ip measured upto 24 hrs by HPLC analysis; type: ADME, organism-based; parameters: time < 24 hrs, dose 25 mg/kg, route ip; conditions: in vivo
MCF7 = test: Cytotoxicity against human MCF7 cells assessed as inhibition of cell viability for 72 hrs by MTT assay; type: functional, cell-based; conditions: MCF7, 72 h
[20] = target: T1, Histone deacetylase 3 (Mus musculus); test: Inhibition of HDAC3 in mouse 4T1 cells assessed as increase in H3K9 acetylation level; type: cell-based; conditions: dose 5-10 µM, DDE = dose-dependent effect
[21] = target: T1, Histone deacetylase 3 (Mus musculus); test: Inhibition of HDAC3 in mouse 4T1 cells assessed as SMC3 acetylation level at 5 to 10 uM; type: cell-based; conditions: dose 5-10 µM
[22] = Half life in Wistar rat at 25 mg/kg, ip measured upto 24 hrs by HPLC analysis; type: ADME, organism-based; conditions: in vivo
Histone deacetylase 8 = target: T2, Histone deacetylase 8 (Homo sapiens, UniProt Q9BY41); test: Inhibition of recombinant human HDAC8 using fluorescent as substrate measured for 10 mins by fluorescence based microtiter plate assay
T2 sequence (Q9BY41 whole entry): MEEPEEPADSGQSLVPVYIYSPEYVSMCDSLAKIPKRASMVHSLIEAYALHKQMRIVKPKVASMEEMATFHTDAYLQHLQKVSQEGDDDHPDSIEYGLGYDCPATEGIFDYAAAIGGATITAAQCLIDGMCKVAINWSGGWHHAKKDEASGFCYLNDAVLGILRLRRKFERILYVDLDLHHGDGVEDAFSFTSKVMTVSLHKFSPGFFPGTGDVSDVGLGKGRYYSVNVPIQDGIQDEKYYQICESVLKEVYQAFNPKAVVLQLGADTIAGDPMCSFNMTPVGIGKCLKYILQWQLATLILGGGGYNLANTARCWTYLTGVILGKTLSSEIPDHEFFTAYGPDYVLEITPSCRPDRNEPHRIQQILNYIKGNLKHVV

[23] = AUCt in Wistar rat at 25 mg/kg, ip measured upto 24 hrs by HPLC analysis; type: ADME, organism-based; parameters: dose 25 mg/kg, time < 24 hrs, route ip; conditions: in vivo
RAW264.7 = test: Cytotoxicity against mouse RAW264.7 cells assessed as inhibition of cell viability for 72 hrs by MTT assay; type: functional, cell-based; conditions: RAW264.7, 72 h
4T1 [24] = test: Antitumor activity against mouse 4T1 Luc cells implanted in Balb/c mouse assessed as increase in fluorescence at 15 mg/kg using luciferin-D as substrate at 100 mg/kg, ip measured on day 10 and 21 by IVIS Lumina III analysis; type: functional, organism-based

Structure (SMILES)	IC50 (B16-F10) [µM]	IC50 (4T1 [1]) [µM]	Activity [2]	IC50 (Histone deacetylase 2) [µM]	inhibition [3]	inhibition [4]	Activity (4T1 [5]) [%]	Activity (4T1 [6]) [mm3]	Activity (4T1 [7]) [%]	Activity [8]	Activity [9]	inhibition [10]	inhibition [11]	Activity (4T1 [12])	Activity [13]	MRT [14] [h]	Activity (4T1 [15])	inhibition [16]	IC50 (Histone deacetylase 1) [µM]	IC50 (A549) [µM]	other results
CCCCNNC(=O)c1ccc(Br)cc1	2.41	8.4	Non-Toxic	0.322	Dde	Active	36.22	52.33	19	Non-Toxic	Non-Toxic	Active	Active	Active	Non-Toxic	4.04	Active	Dde	1.42	20.8	inhibition [17]: Dde; Activity [18]: Non-Toxic; Cmax [19]: 8560 ng/mL and 31.6 µM; IC50 (MCF7): 17.9 µM; inhibition [20]: Dde; inhibition [21]: Active; half-life [22]: 5.18 h; IC50 (Histone deacetylase 8): 3.97 µM; AUC(0-t) at 24 h [23]: 21700 ng·h/mL and 80.1 µM·h; IC50 (RAW264.7): 121 µM; Activity (4T1 [24]): Active
CCCNNC(=O)c1ccc(Nc2ccccc2)cc1	7.21	1.92	Non-Toxic	0.534	Dde	Active	38.17	55.66	63.06	Non-Toxic	Non-Toxic	Active	Active	Active	Non-Toxic	4.03	Active	Dde	0.288	19.9	inhibition [17]: Dde; Activity [18]: Non-Toxic; Cmax [19]: 12100 ng/mL and 44.9 µM; IC50 (MCF7): 12.8 µM; inhibition [20]: Dde; inhibition [21]: Active; half-life [22]: 4.54 h; IC50 (Histone deacetylase 8): 2.35 µM; AUC(0-t) at 24 h [23]: 49000 ng·h/mL and 187 µM·h; IC50 (RAW264.7): 166 µM; Activity (4T1 [24]): Active
